Measured values from patent US6875760B2 (Novo Nordisk A/S, priority 1999, dated 2005).

biological target: T1, cloned human glucagon receptor (Homo sapiens, UniProt P47871); assay: Glucagon Binding Assay (II); settings: read-out: displacement of the glucagon tracer when screened at 1 μM concentration in the glucagon binding assay II
T1 construct: expressed in transfected cells; plasma membrane preparation
T1 sequence (P47871 26-477): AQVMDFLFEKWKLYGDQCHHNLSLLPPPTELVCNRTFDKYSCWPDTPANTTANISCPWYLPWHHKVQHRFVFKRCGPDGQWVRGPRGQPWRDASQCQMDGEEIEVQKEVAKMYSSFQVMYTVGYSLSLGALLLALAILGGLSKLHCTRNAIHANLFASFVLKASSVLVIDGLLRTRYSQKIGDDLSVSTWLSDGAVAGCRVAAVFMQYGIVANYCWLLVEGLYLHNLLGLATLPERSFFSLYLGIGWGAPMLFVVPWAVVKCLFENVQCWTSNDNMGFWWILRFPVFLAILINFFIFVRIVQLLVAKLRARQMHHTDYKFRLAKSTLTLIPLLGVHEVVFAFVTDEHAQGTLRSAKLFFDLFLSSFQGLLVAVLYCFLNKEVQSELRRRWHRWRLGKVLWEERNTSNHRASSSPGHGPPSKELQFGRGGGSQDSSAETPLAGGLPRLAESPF

| Compound | inhibition at 1 µM |
| --- | --- |
| CC(C)(C)C1CCC(N(Cc2ccc(C(=O)NCCC(=O)O)cc2)C(=O)NC(=O)Oc2ccccc2)CC1 (centres unmarked) [Example 208, 3-{4-[1-(4-tert-Butylcyclohexyl)-3-(phenoxycarbonyl)ureidomethyl]benzoylamino}propionic acid] | > 50% |

same assay, conditions: screened at 1 μM; library compounds; read-out: displacement of the glucagon tracer when screened at 1 μM concentration in the glucagon binding assay II

| Compound | inhibition at 1 µM |
| --- | --- |
| CC(=O)N1CCc2cc(N(Cc3ccc(C(=O)NCCC(=O)O)cc3)C(=O)Nc3ccc(Cl)c(C(F)(F)F)c3)ccc21 [Example 194, 3-{4-[1-(1-Acetyl-2,3-dihydro-1H-indol-5-yl)-3-(4-chloro-3-trifluoromethylphenyl)ureidomethyl]benzoylamino}propionic acid] | > 50% |
| O=C(O)CCNC(=O)c1ccc(CN(C(=O)Nc2ccc(Cl)c(C(F)(F)F)c2)c2nc3cc(Cl)c(Cl)cc3[nH]2)cc1 [Example 195, 3-{4-[3-(4-Chloro-3-trifluoromethylphenyl)-1-(5,6-dichloro-1H-benzimidazol-2-yl)ureidomethyl]benzoylamino}propionic acid] | > 50% |
| CC(C)(C)C1CCC(N(Cc2ccc(C(=O)NCCC(=O)O)cc2)C(=O)Nc2ccc(C(=O)O)cc2)CC1 (centres unmarked) [Example 196, 4-{3-(4-tert-Butylcyclohexyl)-3-[4-(2-carboxyethylcarbamoyl)benzyl]ureido}benzoic acid] | > 50% |
| Cc1cc(C)cc(NC(=O)N(Cc2ccc(C(=O)NCCC(=O)O)cc2)C2CCC(C(C)(C)C)CC2)c1 (centres unmarked) [Example 197, 3-{4-[1-(4-tert-Butylcyclohexyl)-3-(3,5-dimethylphenyl)ureidomethyl]benzoylamino}propionic acid] | > 50% |
| CC(C)(C)C1CCC(N(Cc2ccc(OCCCC(=O)O)cc2)C(=O)Nc2cccc(SC(F)(F)F)c2)CC1 (centres unmarked) [Example 198, 4-{4-[1-(4-tert-Butylcyclohexyl)-3-(3-trifluoromethylsulfanylphenyl)ureidomethyl]phenoxy}butyric acid] | > 50% |
| CC(C)(C)C1CCC(N(Cc2ccc(C(=O)NCCC(=O)O)cc2)C(=O)Nc2cccc(SC(F)(F)F)c2)CC1 (centres unmarked) [Example 199, 3-{4-[1-(4-tert-Butylcyclohexyl)-3-(3-trifluoromethylsulfanylphenyl)ureidomethyl]benzoylamino}propionic acid] | > 50% |
| CCOc1ccc(NC(=O)N(Cc2ccc(C(=O)NCCC(=O)O)cc2)C2CCC(C(C)(C)C)CC2)cc1 (centres unmarked) [Example 200, 3-{4-[1-(4-tert-Butylcyclohexyl)-3-(4-ethoxyphenyl)ureidomethyl]benzoylamino}propionic acid] | > 50% |
| O=C(O)CCNC(=O)c1ccc(CN(CCc2cccc(Cl)c2)C(=O)Nc2cccc(SC(F)(F)F)c2)cc1 [Example 201, 3-{4-[1-[2-(3-Chlorophenyl)ethyl]-3-(3-trifluoromethylsulfanylphenyl)ureidomethyl]benzoylamino}propionic acid] | > 50% |
| O=C(O)CCNC(=O)c1ccc(CN(C(=O)Nc2cccc(SC(F)(F)F)c2)c2ccc(C3CCCCC3)cc2)cc1 [Example 202, 3-{4-[1-(4-Cyclohexylphenyl)-3-(3-trifluoromethylsulfanylphenyl)ureidomethyl]benzoylamino}propionic acid] | > 50% |
| O=C(O)CCNC(=O)c1ccc(CN(C(=O)NCOc2ccc3ccccc3c2)c2ccc(C3CCCCC3)cc2)cc1 [Example 203, 3-{4-[1-(4-Cyclohexylphenyl)-3-(naphthalen-2-yloxymethyl)ureidomethyl]benzoylamino}propionic acid] | > 50% |
| CC1(C)C2CCC(CN(Cc3ccc(C(=O)NCCC(=O)O)cc3)C(=O)Nc3cccc(SC(F)(F)F)c3)C1C2 (centres unmarked) [Example 204, 3-{4-[1-(6,6-Dimethylbicyclo[3.1.1]hept-2-ylmethyl)-3-(3-trifluoromethylsulfanylphenyl)ureidomethyl]benzoylamino}propionic acid] | > 50% |
| O=C(O)CCNC(=O)c1ccc(CN(C(=O)NCOc2ccc3ccccc3c2)c2ccc3c(c2)OC(F)(F)C(F)(F)O3)cc1 [Example 205, 3-{4-[3-(Naphthalen-2-yloxymethyl)-1-(2,2,3,3-tetrafluoro-2,3-dihydro-benzo[1,4]dioxin-6-yl)ureidomethyl]benzoylamino}propionic acid] | > 50% |
| CC(=O)N1CCc2cc(N(Cc3ccc(C(=O)NCCC(=O)O)cc3)C(=O)NCOc3ccc4ccccc4c3)ccc21 [Example 206, 3-{4-[1-(1-Acetyl-2,3-dihydro-1H-indol-5-yl)-3-(naphthalen-2-yloxymethyl)ureidomethyl]benzoylamino}propionic acid] | > 50% |
| CN(CCN(Cc1ccc(C(=O)NCCC(=O)O)cc1)C(=O)Nc1cccc(SC(F)(F)F)c1)C(=O)OC(C)(C)C [Example 207, 3-{4-[1-[2-(N-tert-Butoxycarbonyl-N-methylamino)ethyl]-3-(3-trifluoromethylsulfanylphenyl)ureidomethyl]benzoylamino}propionic acid] | > 50% |
| CN1C(=O)c2ccc(NC(=O)N(Cc3ccc(C(=O)NCCC(=O)O)cc3)C3CCC(C(C)(C)C)CC3)cc2C1=O (centres unmarked) [Example 209, 3-{4-[1-(4-tert-Butylcyclohexyl)-3-(2-methyl-1,3-dioxo-2,3-dihydro-1H-isoindol-5-yl)ureidomethyl]benzoylamino}propionic acid] | > 50% |
| O=C(O)CCNC(=O)c1ccc(CN(C(=O)Nc2cccc(SC(F)(F)F)c2)c2ccc(C3CCCCC3)cc2)o1 [Example 210, 3-({5-[1-(4-cyclohexylphenyl)-3-(3-trifluoromethylsulfanylphenyl)ureidomethyl]furan-2-carbonyl}amino)propionic acid] | > 50% |

| Compound | inhibition at 1 µM |
| --- | --- |
| CC(C)(C)C1CCC(N(Cc2ccc(C(=O)NCCC(=O)O)o2)C(=O)Nc2cccc(SC(F)(F)F)c2)CC1 (centres unmarked) [Example 211, 3-({5-[1-(4-tert-Butylcyclohexyl)-3-(3-trifluoromethylsulfanylphenyl)ureidomethyl]furan-2-carbonyl}amino)propionic acid] | > 50% |
| O=C(O)CCNC(=O)c1ccc(CN(C(=O)Nc2ccc(Cl)c(C(F)(F)F)c2)c2ccc(C3CCCCC3)cc2)o1 [Example 212, 3-({5-[3-(4-Chloro-3-trifluoromethylphenyl)-1-(4-cyclohexylphenyl)ureidomethyl]furan-2-carbonyl}amino)propionic acid] | > 50% |
| CC(C)(C)C1CCC(N(Cc2ccc(C(=O)NCCC(=O)O)o2)C(=O)Nc2ccc(Cl)c(C(F)(F)F)c2)CC1 (centres unmarked) [Example 213, 3-({5-[1-(4-tert-Butylcyclohexyl)-3-(4-chloro-3-trifluoromethylphenyl)ureidomethyl]furan-2-carbonyl}amino)propionic acid] | > 50% |
| CC1(C)C2CCC(CN(Cc3ccc(OCCCC(=O)O)cc3)C(=O)Nc3ccc(OC(F)(F)F)cc3)C1C2 (centres unmarked) [Example 214, 4-{4-[1-(6,6-Dimethylbicyclo[3.1.1]hept-2-ylmethyl)-3-(4-trifluoromethoxyphenyl)ureidomethyl]phenoxy}butyric acid] | > 50% |
| CC1(C)C2CCC(CN(Cc3ccc(OCCCC(=O)O)cc3)C(=O)Nc3ccc(Cl)c(C(F)(F)F)c3)C1C2 (centres unmarked) [Example 215, 4-{4-[3-(4-Chloro-3-trifluoromethylphenyl)-1-(6,6-dimethylbicyclo[3.1.1]hept-2-ylmethyl)ureidomethyl]phenoxy}butyric acid] | > 50% |
| O=C(O)CCCOc1ccc(CN(C(=O)Nc2ccc(OC(F)(F)F)cc2)c2ccc(C3CCCCC3)cc2)cc1 [Example 216, 4-{4-[1-(4-Cyclohexylphenyl)-3-(4-trifluoromethoxyphenyl)ureidomethyl]phenoxy}butyric acid] | > 50% |
| O=C(O)CCCOc1ccc(CN(C(=O)Nc2ccc(Cl)c(C(F)(F)F)c2)c2ccc(C3CCCCC3)cc2)cc1 [Example 217, 4-{4-[3-(4-Chloro-3-trifluoromethylphenyl)-1-(4-cyclohexylphenyl)ureidomethyl]phenoxy}butyric acid] | > 50% |
| O=C(O)CCCOc1ccc(CN(C(=O)Nc2ccc(C(=O)O)cc2)c2ccc(C3CCCCC3)cc2)cc1 [Example 218, 4-[3-[4-(3-Carboxypropoxy)benzyl]-3-(4-cyclohexylphenyl)ureido]benzoic acid] | > 50% |
| Cc1cc(C)cc(NC(=O)N(Cc2ccc(OCCCC(=O)O)cc2)c2ccc(C3CCCCC3)cc2)c1 [Example 219, 4-{4-[1-(4-Cyclohexylphenyl)-3-(3,5-dimethylphenyl)ureidomethyl]phenoxy}butyric acid] | > 50% |
| O=C(O)CCCOc1ccc(CN(C(=O)Nc2cc(C(=O)O)cc(C(=O)O)c2)c2ccc(C3CCCCC3)cc2)cc1 [Example 220, 5-[3-[4-(3-Carboxypropoxy)benzyl]-3-(4-cyclohexylphenyl)ureido]isophthalic acid] | > 50% |
| COc1ccc2nc(N(Cc3ccc(OCCCC(=O)O)cc3)C(=O)Nc3ccc(Cl)c(C(F)(F)F)c3)sc2n1 [Example 221, 4-{4-[3-(4-Chloro-3-trifluoromethylphenyl)-1-(5-methoxythiazolo[5,4-b]pyridin-2-yl)ureidomethyl]phenoxy}butyric acid] | > 50% |
| CC(C)(C)C1CCC(N(Cc2ccc(OCCCC(=O)O)cc2)C(=O)Nc2ccc(OC(F)(F)F)cc2)CC1 (centres unmarked) [Example 224, 4-{4-[1-(4-tert-Butylcyclohexyl)-3-(4-trifluoromethoxyphenyl)ureidomethyl]phenoxy}butyric acid] | > 50% |
| CC(C)(C)C1CCC(N(Cc2ccc(OCCCC(=O)O)cc2)C(=O)Nc2ccc(Cl)c(C(F)(F)F)c2)CC1 (centres unmarked) [Example 225, 4-{4-[1-(4-tert-Butylcyclohexyl)-3-(4-chloro-3-trifluoromethylphenyl)ureidomethyl]phenoxy}butyric acid] | > 50% |
| CC(C)(C)C1CCC(N(Cc2ccc(OCCCC(=O)O)cc2)C(=O)Nc2ccc(C(=O)O)cc2)CC1 (centres unmarked) [Example 226, 4-{3-(4-tert-Butylcyclohexyl)-3-[4-(3-carboxypropoxy)benzyl]ureido}benzoic acid] | > 50% |
| Cc1cc(C)cc(NC(=O)N(Cc2ccc(OCCCC(=O)O)cc2)C2CCC(C(C)(C)C)CC2)c1 (centres unmarked) [Example 227, 4-{4-[1-(4-tert-Butylcyclohexyl)-3-(3,5-dimethylphenyl)ureidomethyl]phenoxy}butyric acid] | > 50% |
